Target: T1, human neutrophil elastase (HNE) (Homo sapiens, UniProt P08246)
T1 construct: purchased Sigma E8140
T1 sequence (P08246 30-247 limits assumed): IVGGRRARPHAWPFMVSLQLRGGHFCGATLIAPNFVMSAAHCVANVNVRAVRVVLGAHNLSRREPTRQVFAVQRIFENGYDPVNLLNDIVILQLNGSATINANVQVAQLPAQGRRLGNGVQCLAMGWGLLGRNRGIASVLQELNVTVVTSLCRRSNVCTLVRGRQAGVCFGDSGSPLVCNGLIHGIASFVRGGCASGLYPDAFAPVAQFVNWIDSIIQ
Test: HNE enzyme assay
Type: biochemical
Conditions: human leukocyte elastase 0.00072 U/mL; substrate MeOSuc-Ala-Ala-Pro-Val-AMC 100 μM; 25° C., 30 minutes; at least two separate experiments; read-out: HNE inhibition
Protocol: Compounds of this invention were tested for potency in a human neutrophil elastase (HNE) enzyme activity assay. HNE Enzyme Assay Assays were performed in 96-well plates in a total assay volume of 100 μL. The final concentration of elastase enzyme (human leukocyte elastase, Sigma E8140) was 0.00072 U/mL. The peptide substrate (MeOSuc-[…], Calbiochem #324740) was used at a final concentration of 100 μM. The final concentration of DMSO was 1% in the assay buffer (0.05M Tris.HCl, 0.1M NaCl, 0.1M CaCl2, 0.0005% brij-35, pH 7.5). The enzymatic reaction was started by addition of the enzyme and incubated at 25° C. for 30 minutes. After incubation, the reaction was stopped by addition of soybean trypsin inhibitor (Sigma T9003) at a final concentration of 50 μg/well. Fluorescence was measured using a Molecular Devices fluorescence plate reader using 380 nm excitation and 460 nm emission wavelengths. A dose response to each compound was performed and the effect of compound in each experiment was expressed as a percentage inhibition of the control enzyme fluorescence. Dose response curves were plotted and compound potency (IC50) was determined. Compounds were tested in at least two separate experiments.

SMILES | IC50 [nM]
Cn1c(-c2ccnn2-c2ccc(C#N)cc2CC[N+](C)(C)Cc2ccccc2)c(C(=O)NC2CCCC2)c(=O)n1-c1cccc(C(F)(F)F)c1 [Example 16, Benzyl-(2-{5-cyano-2-[4′-cyclopentylcarbamoyl-2′-methyl-5′-oxo-1′-(3-trifluoromethyl-phenyl)-2′,5′-dihydro-1′H-[3,3′]bipyrazolyl-2-yl]-phenyl}-ethyl)-dimethyl-ammonium bromide] | < 1
Cc1c(-c2ccnn2-c2ccc(C#N)cc2CC[N+](C)(C)C)n(C(=O)NC2CCCC2)c(=O)n1-c1cccc(C(F)(F)F)c1 [Example 9, [2-(5-Cyano-2-{5-[3-cyclopentylcarbamoyl-5-methyl-2-oxo-1-(3-trifluoromethyl-phenyl)-2,3-dihydro-1H-imidazol-4-yl]-pyrazol-1-yl}-phenyl)-ethyl]-trimethyl-ammonium benzene sulfonate] | < 1
Cc1c(-c2ccnn2-c2ccc(C#N)cc2CC[N+](C)(C)C)n(C(=O)NC(C)C)c(=O)n1-c1cccc(C(F)(F)F)c1 [Example 14, [2-(5-Cyano-2-{5-[3-isopropylcarbamoyl-5-methyl-2-oxo-1-(3-trifluoromethyl-phenyl)-2,3-dihydro-1H-imidazol-4-yl]-pyrazol-1-yl}-phenyl)-ethyl]-trimethyl-ammonium benzene sulphonate] | < 1
Cc1c(-c2ccnn2-c2ccc(C#N)cc2CC[N+](C)(C)C)n(C(=O)NC2CC2)c(=O)n1-c1cccc(C(F)(F)F)c1 [Example 12, [2-(5-Cyano-2-{5-[3-cyclopropylcarbamoyl-5-methyl-2-oxo-1-(3-trifluoromethyl-phenyl)-2,3-dihydro-1H-imidazol-4-yl]-pyrazol-1-yl}-phenyl)-ethyl]-trimethyl-ammonium benzene sulphonate] | < 1
Cc1c(-c2n(-c3ccc(C#N)cc3)cc[n+]2C)n(C(=O)NC2CCC2)c(=O)n1-c1cccc(C(F)(F)F)c1 [Example 3, 1-(4-Cyanophenyl)-2-{3-(cyclobutylcarbamoyl)-5-methyl-2-oxo-1-[3-(trifluoromethyl)phenyl]-2,3-dihydro-1H-imidazol-4-yl}-3-methyl-1H-imidazol-3-ium benzene sulfonate] | < 1
Cc1c(-c2n(-c3ccc(C#N)cc3)cc[n+]2C)n(C(=O)NC2CCCC2)c(=O)n1-c1cccc(C(F)(F)F)c1 [Example 1, 1-(4-Cyanophenyl)-2-{3-(cyclopentylcarbamoyl)-5-methyl-2-oxo-1-[3-(trifluoromethyl)phenyl]-2,3-dihydro-1H-imidazol-4-yl}-3-methyl-1H-imidazol-3-ium benzene sulfonate] | < 1
CCNC(=O)n1c(-c2ccnn2-c2ccc(C#N)cc2CC[N+](C)(C)C)c(C)n(-c2cccc(C(F)(F)F)c2)c1=O [Example 13, [2-(5-Cyano-2-{5-[3-ethylcarbamoyl-5-methyl-2-oxo-1-(3-trifluoromethyl-phenyl)-2,3-dihydro-1H-imidazol-4-yl]-pyrazol-1-yl}-phenyl)-ethyl]-trimethyl-ammonium benzene sulphonate] | < 1
Cc1c(-c2ccnn2-c2ccc(C#N)cc2CC[N+](C)(C)C)n(C(=O)NC2CCCCC2)c(=O)n1-c1cccc(C(F)(F)F)c1 [Example 11, [2-(5-Cyano-2-{5-[3-cyclohexylcarbamoyl-5-methyl-2-oxo-1-(3-trifluoromethyl-phenyl)-2,3-dihydro-1H-imidazol-4-yl]-pyrazol-1-yl}-phenyl)-ethyl]-trimethyl-ammonium benzene sulphonate] | < 1
Cn1c(-c2ccnn2-c2ccc(C#N)cc2CC[N+](C)(C)C)c(C(=O)NC2CCCCC2)c(=O)n1-c1cccc(C(F)(F)F)c1 [Example 17, (2-{5-Cyano-2-[4′-cyclohexylcarbamoyl-2′-methyl-5′-oxo-1′-(3-trifluoromethyl-phenyl)-2′,5′-dihydro-1′H-[3,3′]bipyrazolyl-2-yl]-phenyl}-ethyl)-trimethyl-ammonium benzene sulfonate] | < 1
Cn1c(-c2n(-c3ccc(C#N)cc3)nc[n+]2C)c(C(=O)NC2CCCC2)c(=O)n1-c1cccc(C(F)(F)F)c1 [Example 8, 1-(4-cyano-phenyl)-5-[4-cyclopentylcarbamoyl-2-methyl-5-oxo-1-(3-trifluoromethyl-phenyl)-2,5-dihydro-1H-pyrazol-3-yl]-4-methyl-1H-[1,2,4]triazol-4-ium benzenesulfonate] | < 1
Cn1c(-c2ccnn2-c2ccc(C#N)cc2CC[N+](C)(C)C)c(C(=O)NC2CCCC2)c(=O)n1-c1cccc(C(F)(F)F)c1 [Example 15, (2-{5-Cyano-2-[4′-cyclopentylcarbamoyl-2′-methyl-5′-oxo-1′-(3-trifluoromethyl-phenyl)-2′,5′-dihydro-1′H-[3,3′]bipyrazolyl-2-yl]-phenyl}-ethyl)-trimethyl-ammonium benzene sulfonate] | < 1
Cc1c(-c2n(-c3ccc(C#N)cc3)cc[n+]2C)n(C(=O)NCc2ccc(S(C)(=O)=O)cc2)c(=O)n1-c1cccc(C(F)(F)F)c1 [Example 5, 1-(4-Cyanophenyl)-2-{3-(4-methanesulfonyl-benzylcarbamoyl)-5-methyl-2-oxo-1-[3-(trifluoromethyl)phenyl]-2,3-dihydro-1H-imidazol-4-yl}-3-methyl-1H-imidazol-3-ium benzene sulfonate] | 1 to 10
Cc1c(-c2ccnn2-c2ccc(C#N)cc2CC[N+](C)(C)Cc2ccccc2)n(C(=O)NC2CCCC2)c(=O)n1-c1cccc(C(F)(F)F)c1 [Example 10, Benzyl-[2-(5-cyano-2-{5-[3-cyclopentylcarbamoyl-5-methyl-2-oxo-1-(3-trifluoromethyl-phenyl)-2,3-dihydro-1H-imidazol-4-yl]-pyrazol-1-yl}-phenyl)-ethyl]-dimethyl-ammonium bromide] | < 1
Cc1c(-c2n(-c3ccc(C#N)cc3)nc[n+]2C)n(C(=O)NC2CCCC2)c(=O)n1-c1cccc(C(F)(F)F)c1 [Example 6, 1-(4-Cyano-phenyl)-5-[3-cyclopentylcarbamoyl-5-methyl-2-oxo-1-(3-trifluoromethyl-phenyl)-2,3-dihydro-1H-imidazol-4-yl]-4-methyl-1H-[1,2,4]triazol-4-ium benzene sulfonate] | < 1
Cc1c(-c2n(-c3ccc(C#N)cc3)cc[n+]2C)n(C(=O)NC2CCN(C(=O)C(F)(F)F)CC2)c(=O)n1-c1cccc(C(F)(F)F)c1 [Example 4, 1-(4-Cyanophenyl)-2-{3-[1-(2,2,2-trifluoro-acetyl)-piperidin-4-ylcarbamoyl]-5-methyl-2-oxo-1-[3-(trifluoromethyl)phenyl]-2,3-dihydro-1H-imidazol-4-yl}-3-methyl-1H-imidazol-3-ium benzene sulfonate] | < 1
Cc1c(-c2n(-c3ccc(C#N)cc3)cc[n+]2Cc2ccccc2)n(C(=O)NC2CCCC2)c(=O)n1-c1cccc(C(F)(F)F)c1 [Example 2, 1-(4-Cyanophenyl)-2-{3-(cyclopentylcarbamoyl)-5-methyl-2-oxo-1-[3-(trifluoromethyl)phenyl]-2,3-dihydro-1H-imidazol-4-yl}-3-benzyl-1H-imidazol-3-ium bromide] | < 1
Cn1c(-c2n(-c3ccc(C#N)cc3)cc[n+]2C)c(C(=O)NC2CCCC2)c(=O)n1-c1cccc(C(F)(F)F)c1 [Example 7, 3-(4-Cyano-phenyl)-2-[4-cyclopentylcarbamoyl-2-methyl-5-oxo-1-(3-trifluoromethyl-phenyl)-2,5-dihydro-1H-pyrazol-3-yl]-1-methyl-3H-imidazol-1-ium benzenesulfonate] | < 1
